Publication PMC314469, “Protein Interaction Networks by Proteome Peptide Scanning” (PLoS Biology, 2004)

Test system: Myo5 SH3 domain
Assay: SPOT analysis of cellulose-bound peptides (WISE), Myo5 SH3 domain (Dataset S4)
Format: binding, Saccharomyces cerevisiae
Details: for The normalized value in BLU units: Myo5 SH3 domain
[1] = SPOT analysis of cellulose-bound 14-mer yeast proteome peptides, normalized value, mean where the peptide was synthesized more than once
[2] = SPOT analysis of membrane-synthesized peptides probed with Myo5 SH3 domain, normalized value
[3] = SPOT analysis of cellulose-bound peptides probed with Myo5 SH3 domain, normalized value
[4] = SPOT analysis of membrane-bound peptides, normalized value (see methods)

## YEGRFWNPENPYKF
[1]
  The normalized value in BLU units: 162.7 BLU

## FGSNKNNPVPPELT
[2]
  The normalized value in BLU units (SPOT analysis, Myo5 SH3): 171.5 BLU

## VLKTLAFPINPSDI
[3]
  The normalized value in BLU units (SPOT analysis, Myo5 SH3): 156.0 BLU

## LLEERNNPDIPVDK
[2]
  The normalized value in BLU units (SPOT analysis, Myo5 SH3): 311.9 BLU

## SPKKLASPRTPNAN
[3]
  The normalized value in BLU units (SPOT analysis, Myo5 SH3): 276.2 BLU

## NPGSMSMPGVPTSM
[3]
  The normalized value in BLU units (SPOT analysis, Myo5 SH3): 189.7 BLU

## TLRSMIPPFTPQLD
[1]
  The normalized value in BLU units: 412.7 BLU

## KLYYRHRPQKPVRT
[4]
  The normalized value in BLU units: 915.7 BLU

## SLQQFYNPESPIQP
[1]
  The normalized value in BLU units: 131.1 BLU

## REFEFIIPVFPVIC
[3]
  The normalized value in BLU units (SPOT analysis, Myo5 SH3): 163.2 BLU

## RRKLRTVPGVPLIH
[2]
  The normalized value in BLU units (SPOT analysis, Myo5 SH3): 2011.1 BLU

## QENPYIIPLPPSST
[3]
  The normalized value in BLU units (SPOT analysis, Myo5 SH3): 240.4 BLU

## PEVKHFCPSTPIML
[3]
  The normalized value in BLU units (SPOT analysis, Myo5 SH3): 93.7 BLU

## PEHLFNNPQNPMDF
[1]
  The normalized value in BLU units: 157.1 BLU

## KIVERGPPYPPDLR
[4]
  The normalized value in BLU units: 137.7 BLU

## AELFLGIPIFPGAS
[3]
  The normalized value in BLU units (SPOT analysis, Myo5 SH3): 36.7 BLU

## KPKMLPIPSKPTLF
[1]
  The normalized value in BLU units: 1355.0 BLU

## DKFIKLIPMRPVLI
[4]
  The normalized value in BLU units: 252.9 BLU

## LASPFHDPILPRRT
[1]
  The normalized value in BLU units: 288.3 BLU

## YFVKKIRPGNPLTK
[4]
  The normalized value in BLU units: 508.5 BLU

## RRIRKEHPGEPNVI
[4]
  The normalized value in BLU units: 308.3 BLU

## DTYARNNPDFPPQN
[1]
  The normalized value in BLU units: 138.5 BLU

## NQIARQIPYQPWYL
[2]
  The normalized value in BLU units (SPOT analysis, Myo5 SH3): 163.5 BLU

## IDKSKLSPRFPELK
[4]
  The normalized value in BLU units: 233.0 BLU

## PPMAYNRPVYPPPQ
[1]
  The normalized value in BLU units: 6717.1 BLU

## VLTVKMSPSLPDEI
[2]
  The normalized value in BLU units (SPOT analysis, Myo5 SH3): 229.5 BLU

## NVLLKAKPNDPAAT
[4]
  The normalized value in BLU units: 155.5 BLU

## VKATKWPPKLPEIQ
[2]
  The normalized value in BLU units (SPOT analysis, Myo5 SH3): 57.4 BLU

## HEVPKRSPEKPSNP
[4]
  The normalized value in BLU units: 171.6 BLU

## TDLFKPLPEPPTEL
[2]
  The normalized value in BLU units (SPOT analysis, Myo5 SH3): 23.4 BLU

## ALLRRTIPKRPFYH
[2]
  The normalized value in BLU units (SPOT analysis, Myo5 SH3): 914.3 BLU

## VYRRKCIPFAPHQI
[2]
  The normalized value in BLU units (SPOT analysis, Myo5 SH3): 382.9 BLU

## LNFKRLLPRDPSEK
[2]
  The normalized value in BLU units (SPOT analysis, Myo5 SH3): 553.7 BLU

## KFRQMFKPLAPNTR
[1]
  The normalized value in BLU units: 1217.4 BLU

## PFGTFTLPADPEYK
[1]
  The normalized value in BLU units: 171.6 BLU

## ETTTRETPLPPIPA
[2]
  The normalized value in BLU units (SPOT analysis, Myo5 SH3): 178.3 BLU

## EFIVKTIPVPPRDF
[2]
  The normalized value in BLU units (SPOT analysis, Myo5 SH3): 115.3 BLU

## TVCDRLIPTSPQKT
[4]
  The normalized value in BLU units: 127.7 BLU

## LVGLKYEPLFPYFA
[4]
  The normalized value in BLU units: 124.8 BLU

## DETRKLTPCSPGDD
[4]
  The normalized value in BLU units: 230.8 BLU

## KVLIKTLPVLPEAR
[2]
  The normalized value in BLU units (SPOT analysis, Myo5 SH3): 236.7 BLU

## IARSFTIPFLPKIP
[3]
  The normalized value in BLU units (SPOT analysis, Myo5 SH3): 204.5 BLU

## DFRLHYYPKDPSNV
[3]
  The normalized value in BLU units (SPOT analysis, Myo5 SH3): 77.7 BLU

## QTVIKTHPRIPKSE
[2]
  The normalized value in BLU units (SPOT analysis, Myo5 SH3): 186.2 BLU

## QPAQLQEPQEPLST
[3]
  The normalized value in BLU units (SPOT analysis, Myo5 SH3): 125.9 BLU

## QTGSKTVPQAPQAP
[2]
  The normalized value in BLU units (SPOT analysis, Myo5 SH3): 62.9 BLU

## YVNAKLDPSLPSQY
[2]
  The normalized value in BLU units (SPOT analysis, Myo5 SH3): 97.1 BLU

## QRLDRDKPHEPNGY
[2]
  The normalized value in BLU units (SPOT analysis, Myo5 SH3): 217.9 BLU

## VSQRKKRPISPHLT
[4]
  The normalized value in BLU units: 814.5 BLU

## RLTNFEVPSLPTFH
[3]
  The normalized value in BLU units (SPOT analysis, Myo5 SH3): 319.1 BLU

## VPDSYKPPKNPIVF
[1]
  The normalized value in BLU units: 829.4 BLU

## MASGLLPPIQPGFD
[3]
  The normalized value in BLU units (SPOT analysis, Myo5 SH3): 223.0 BLU

## GYNPKTVPFVPISG
[4]
  The normalized value in BLU units: 108.5 BLU

## QLIGFGNPKNPFAL
[3]
  The normalized value in BLU units (SPOT analysis, Myo5 SH3): 46.1 BLU

## DFIGRKSPDLPEYL
[4]
  The normalized value in BLU units: 138.7 BLU

## KYCFKLVPPQPGSK
[4]
  The normalized value in BLU units: 218.8 BLU

## ILKNRMNPEKPYEL
[2]
  The normalized value in BLU units (SPOT analysis, Myo5 SH3): 321.6 BLU

## KAPYLVQPNVPEKH
[1]
  The normalized value in BLU units: 130.6 BLU

## TPYQLLSPILPVLL
[1]
  The normalized value in BLU units: 287.1 BLU

## ALGIFFAPESPWWL
[1]
  The normalized value in BLU units: 229.3 BLU
